Data: patent US6579899B1, “Composition for treatment of stress” (Massachusetts Institute of Technology, priority 1998, dated 2003)
“Also recorded” adds a separate entry of the source.

Tests used:
[1] = tested on: rats; conditions: cited from earlier work
[2] = tested on: obese, stressed patients; experiment: questionnaire rating tendency to eat in response to emotional and stressful triggers; assay type: in vivo, human
Excerpt: (§1) A subgroup of obese individuals is identified, which individuals describe themselves as being unable to control their eating and who attempt to continue on a weight-reducing diet when experiencing emotional distress. […]
(§2) Objective measurements of emotional distress are made in some patients using the CES-D (Center for […] Depression Form) test, which measures current levels of emotional distress (Radloff, et al., The CES-D Scale: A Self Report Depression Scale for Research in the General Population Applied Psychological Measurement 1: 385-401, 1977); and the POMS (Profile of Mood States test, that assesses tension, depression, anger and confusion (McNair, et al., Profile of Mood States Manual;San Diego: Educational and Industrial Testing Service, 1971); both of these references are hereby incorporated by reference in their entirety. These tests are also given monthly during the treatment period. At the same time, patients also complete questionnaires that ask the patients to rate their appetite and hunger, and also to rate their tendency to eat in response to a variety of emotional and stressful triggers. The patients are also weighed monthly.

[3] = tested on: obese, stressed patients; experiment: CES-D test of current levels of emotional distress in patients; assay type: in vivo, human
Excerpt: as §1, §2

[4] = tested on: obese, stressed patients; experiment: questionnaire rating appetite and hunger; assay type: in vivo, human; conditions: 30 mg/day, during the treatment period, initial score 10.5
Excerpt: as §1, §2

[5] = body weight in four month weight loss program; assay type: in vivo, human
Excerpt: as §1, §2

[6] = tested on: obese, stressed patients; experiment: POMS (Profile of Mood States) test; assay type: in vivo, human; conditions: 30 mg/day, during the study period, baseline 24
Method: A subgroup of obese individuals is identified, which individuals describe themselves as being unable to control their eating and who attempt to continue on a weight-reducing diet when experiencing emotional distress. These patients are treated for four months by enrolling them in a weight loss program which includes the administration of dexfenfluramine at 30 mg/day and which involves adherence to a reduced-calorie meal plan.
as §2

CCN[C@@H](C)Cc1cccc(C(F)(F)F)c1 [dexfenfluramine]
tail pressure/tail pinch-induced eating ([1]; Rowland et al.): decrease the eating behavior
DI50, inhibition of tail pressure-induced eating ([1]; reported by Garattini, quoted from Rowland et al.): 0.6 mg/kg
score on the emotional triggers to overeating report ([2]; 30 mg/day, end of the treatment period, from 23.4±9.8, ± standard deviations): 8.6±8.5
Emotional Triggers ([2]; patient eleven, 30 mg/day, Month 4, baseline 30): 7
Emotional Triggers ([2]; patient six, 30 mg/day, Month 4, baseline 23): 4
Emotional Triggers ([2]; patient ten, 75 rising to 150 mg/day, Month 4, baseline 14): 2
Emotional Triggers ([2]; patient three, 50 rising to 150 mg/day, Month 4, baseline 34): 24
Emotional Triggers ([2]; patient twelve, 75 then 100 mg/day, Month 4, baseline 25): 3
lowered CES-D score ([3]; 30 mg/day, fifth of six women, from 15): 7
lowered CES-D score ([3]; 30 mg/day, first of six women with above normal score at start, from 34): 7
lowered CES-D score ([3]; 30 mg/day, fourth of six women, from 19): 5
lowered CES-D score ([3]; 30 mg/day, second of six women, from 37): 8
lowered CES-D score ([3]; 30 mg/day, sixth of six women, from 15): 3
indicators of stress ([3]; 30 mg/day, stress-induced overeaters): reduces the indicators of stress
lowered CES-D score ([3]; 30 mg/day, third of six women, from 22): 9
Mood Scores CES-D ([3]; patient eleven, 30 mg/day, Month 4, baseline 19): 4
Mood Scores CES-D ([3]; patient six, 30 mg/day, Month 4, baseline 5): 1
Mood Scores CES-D ([3]; patient ten, 75 rising to 150 mg/day, Month 4, baseline 8): 2
Mood Scores CES-D ([3]; patient three, 50 rising to 150 mg/day, Month 4, baseline 23): 17
Mood Scores CES-D ([3]; patient twelve, 75 then 100 mg/day, Month 4, baseline 29): 18
score on the appetite and hunger scale [4]: 5.0
ability of stressed overeaters to lose weight ([5]; 30 mg/day, four months, reduced-calorie meal plan): enhance the ability of stressed overeaters to lose weight; also recorded: promotes the ability to control food intake and to lose weight
weight at the end of 4 months ([5]; patient eleven, 30 mg/day, starting weight 90.0 kg): 82.6 kg
weight at the end of 4 months ([5]; patient eleven, 30 mg/day, starting weight 198 pounds): 181.7 pounds
weight after 4 months ([5]; patient six, 30 mg/day, starting weight 98.2 kg): 93.4 kg
weight after 4 months ([5]; patient six, 30 mg/day, starting weight 216 pounds): 205.5 pounds
weight after 4 months ([5]; patient ten, 75 rising to 150 mg/day, starting weight 83.6 kg): 76.8 kg
weight after 4 months ([5]; patient ten, 75 rising to 150 mg/day, starting weight 184 pounds): 169 pounds
weight after 4 months ([5]; patient three, 50 rising to 150 mg/day, starting weight 137.3 kg): 130 kg
weight after 4 months ([5]; patient three, 50 rising to 150 mg/day, starting weight 302 pounds): 286 pounds
weight at the end of 4 months ([5]; patient twelve, 75 then 100 mg/day, starting weight 90.0 kg): 82.6 kg
weight at the end of 4 months ([5]; patient twelve, 75 then 100 mg/day, starting weight 198 pounds): 182 pounds
summed Tension, Depression, Anger and Confusion scores on the POMS test [6]: 16.8
